Laboratory results published in publication PMC4689457, “Immucillins ImmA and ImmH Are Effective and Non-toxic in the Treatment of Experimental Visceral Leishmaniasis” (PLoS Neglected Tropical Diseases, 2015).
Like-named read-outs stand apart in the source and are kept apart here.

What was measured:
[1] = molecular target: L. (L.) donovani recombinant NH36; parameters: method as in PMID 25909893; conditions: ref 29; read-out: Ki, inhibition of NH36 enzymatic activity; cited from earlier work
L. (L.) infantum chagasi [2] = experiment: Liver parasite load (LDU) in infected BALB/c mice after chemotherapy; format: in vivo; conditions: 2.5 mg/kg/day ip 5 days
Experimental: (§1) Female BALB/c mice, 8 week old, were infected through the caudal vein with 10^7 amastigotes of L. (L.) infantum (strain IOC-L 3324) isolated from infected hamsters spleens. After 15 days of infection, mice (n = 5 per treatment) were injected by the intraperitoneal route (ip) with daily doses for 5 days of 2.5 mg/Kg of IA, IH, SMIH [30, 31] or the control drug Glucantime (Sanofi Aventis, batch 0929280802) (Fig 1). Immucillins were synthesized at the Ferrier Research Institute, Victoria University of Wellington, New Zealand. Uninfected and infected mice treated only with saline were included as controls for the treatment cohorts. On days 1, 15, and 30 after complete treatment, the animals were euthanized with CO2. Blood samples were collected for sera analysis and weight of spleens, livers and total body were determined. Spleens were also used for determination of cytokine expression. The parasite load was evaluated in Giemsa-stained liver smears and expressed in LDU values (Leishman Donovan units of Stauber = number of amastigotes per 1000 liver cell nuclei/mg of liver weight). The levels of urea, creatinine, glutamate pyruvate transaminase (GPT) and glutamate oxaloacetate transaminase ([…]) were assessed in plasma by standard clinical laboratory procedures using a Wiener lab Metrolab 2300 (Laborlife Análises Clínicas laboratory, Rio de Janeiro).

macrophage = tested on: macrophage; parameters: method as in PMID 25909893; conditions: 10 μM; cited from earlier work
[3] = tested on: L. (L.) amazonensis promastigotes; parameters: method as in PMID 25909893; conditions: cited from earlier work
L. (L.) infantum chagasi [4] = experiment: Liver parasite load in infected CB hamsters after chemotherapy; format: in vivo, CB golden hamster; conditions: 2.5 mg/kg/day ip 5 days, 10 days after complete treatment; for liver parasite load: untreated 16,334 LDU
Experimental: (§2) The efficacy of immucillins was also assayed in the CB golden hamster susceptible model. Females, 8 weeks old, were infected through the intracardiac route with 2 x 10^7 amastigotes of L. (L.) infantum chagasi (strain IOC-L 3324) isolated from infected hamsters spleens. Thirty days after infection, the animals were treated with 2.5 mg/kg daily doses of Glucantime, IA, IH or SMIH, through the ip route, for five days. Ten days after complete treatment the animals were euthanized, their parasite load was determined in livers and the renal function evaluated in sera samples as described above.

[5] = tested on: L. (L.) infantum chagasi amastigotes; parameters: method as in PMID 25909893; conditions: 10 μM; cited from earlier work
[6] = tested on: L. (L.) infantum chagasi infection; experiment: Survival, body and organ weights of infected treated BALB/c mice; format: in vivo; conditions: end of the experiment
Experimental: as §1

[7] = tested on: L. (L.) infantum chagasi promastigotes; parameters: method as in PMID 25909893; conditions: cited from earlier work
[8] = Body weight and renal/hepatic markers in sera of infected treated hamsters; format: in vivo, CB golden hamster
Experimental: as §2

[9] = tested on: CD4+, CD8+ and CD19+ lymphocytes; experiment: CD4+, CD8+ and CD19+ lymphocyte frequencies by flow cytometry in splenocytes of uninfected treated mice; format: cell-based, BALB/c mice; conditions: for CD8+ T cell frequencies: day 1 after treatment
Experimental: (§3) Female BALB/c mice, 8 weeks old, were injected intraperitoneally with daily doses 2.5 mg/Kg of IA, IH, SMIH or Glucantime during five days and euthanized on day 1, 15 and 30 after complete treatment. For evaluation of the T cell response, spleens were removed and splenocytes were incubated for 24 h in vitro with the lysate of 10^6 stationary phase promastigotes of L. (L.) infantum chagasi (MHOM/BR/1974/PP75), with 25 μg/mL NH36, at 37°C and 5% CO2, during 72 h for the assay of the cytokine expression in the supernatants. Additionally, splenocytes from uninfected BALB/c mice either untreated or previously treated with IA, IH, SMIH or Glucantime were incubated in vitro with 10 μg/mL of each respective drug. For flow cytometry analysis (FACS analysis), splenocytes were incubated for 24 h with the antigens or drugs, labeled with anti-CD4FITC (clone GK1.5), anti-CD8FITC (clone 53–6.7) monoclonal antibodies (R&D systems, Inc) or with rat anti-mouse CD19-PerCP-Cy5.5 and 100,000 lymphocyte counts were acquired using a BD FACScalibur apparatus. Data was analyzed using the Flow-Jo program. The secretion of cytokines was evaluated in the supernatants of splenocytes by an ELISA assay.

[10] = tested on: anti-NH36 IgG, IgG1 and IgG2a antibodies; experiment: Anti-NH36 antibody ELISA in sera of infected treated mice; format: in vivo, BALB/c mice
Experimental: The NH36 gene of Leishmania (L.) donovani (EMBL, Genbank and DDJB data bases, access number AY007193) with a His6tag at the C-terminal was cloned in E. coli Bl21DE3. Expression of the recombinant NH36 was obtained by induction with 0.5mM IPTG and overnight incubation at 20°C. Cultures were harvested by centrifugation and the pellets submitted to sonication during 10 minutes with cycles of 30 sec. and intervals of 55 sec. Sonicates were centrifuged and their supernatants separated for purification by column chromatography using Ni-NTA Superflow resin (Qiagen, USA). The column was eluted with a 50mM potassium phosphate, 300 mM NaCl buffer, pH: 8.0, using a 50 to 300mM imidazole gradient. The fraction containing NH36 recombinant antigen was recovered, dyalized and preserved at -80°C. Sera were collected from mice by intracardiac puncture on day 1, 15 and 30 following complete chemotherapy and assayed for the presence of anti-NH36 IgG, IgG1 and IgG2a antibodies. For that purpose the recombinant NH36 antigen (40 μg/mL) was solubilized in 0.1M sodium carbonate buffer (8.4 g of NaHCO3, 3.56 g of Na2CO3 per L; pH 9.6), and used to coat flat-bottom 96-well plates. Antibodies were detected by goat anti-mice IgG (Sigma), anti-IgG1 and anti-IgG2a peroxidase-conjugates (Southern Biotechnology Associates, Birmingham, AL, EEUU) in a 1:1000 dilution. The absorbance values at 492 ηm were compared using a 1:100 dilution of the serum samples. Results are expressed as mean values of triplicates. We used the mean average + 2 SD of serum from normal uninfected controls in order to calculate the cut-off value according to the Youden test.

[11] = Renal and hepatic function markers in plasma of mice; format: in vivo, BALB/c mice
Experimental: as §1

splenocytes = experiment: Cytokine secretion by splenocytes of uninfected treated mice incubated in vitro with the respective drug; format: cell-based, BALB/c mice; conditions: splenocytes + 10 μg/ml drug
Experimental: as §3

amastigotes = conditions: cited from earlier work
IgG2a response, IL-10 = conditions: cited from earlier work; for IL-10 reduction: 1 day after complete treatment
[12] = cited from earlier work
human lymphocytes = conditions: cited from earlier work
visceral leishmaniasis = conditions: oral therapy, cited from earlier work
[13] = day 30 after complete treatment
[14] = day 1 after complete treatment, vs untreated infected controls

O=c1[nH]cnc2c([C@@H]3N[C@H](CO)[C@@H](O)[C@H]3O)c[nH]c12 [IH]
Ki [1]: 0.019 µM
reduction of liver parasite load (LDU) (L. (L.) infantum chagasi [2]; [13]): 85%
damage to macrophage viability (macrophage): no apparent damage
concentrations inhibiting growth of promastigotes in vitro [3]: nanomolar to micromolar
liver parasite load reduction (L. (L.) infantum chagasi [4]): 70%
liver parasite load (L. (L.) infantum chagasi [4]): 4,905 LDU
inhibition of intracellular replication of amastigotes [5]: 95%
survival [6]: 100%
concentrations inhibiting growth of promastigotes in vitro [7]: nanomolar to micromolar
decrease of creatinine ([8]; hamster, in vivo): 63%
reduction of GOT levels ([8]; hamster, in vivo): ~ 30%
reduction of blood urea levels ([8]; hamster, in vivo): ~ 50%
body weight ([8]; infected hamsters): increase in body weight
CD19 B cell frequencies enhanced by previous treatment [9]: sustained

Glucantime [reference compound]
reduction of liver parasite load (LDU) (L. (L.) infantum chagasi [2]; [14]): 46%
reduction of liver parasite load (LDU) (L. (L.) infantum chagasi [2]; [13]): 88%
anti-NH36 IgG2a increase vs untreated infected controls ([10]; day 1): 67%
renal (urea and creatinine) and hepatic (GOT and GTP) toxicity [11]: Pronounced toxicity
increase in GOT serum level ([11]; 2.5 mg/kg/day ip 5 days): 6 fold
increase in GPT serum level ([11]; 2.5 mg/kg/day ip 5 days): 9 fold
increase in creatinine serum level ([11]; 2.5 mg/kg/day ip 5 days): 9 fold
increase in urea serum level ([11]; 2.5 mg/kg/day ip 5 days): 4 fold
survival [6]: 100%
IL-10 levels (splenocytes): 509 pg/mL
body weight ([8]; infected hamsters): increase in body weight
decrease of creatinine ([8]; infected hamsters): 41%
reduction of blood urea levels ([8]; infected hamsters): ~ 50%
CD4+ T cell frequencies (in words) [9]: high CD4+ T cell increase (p<0.05) only on day 1
CD19 B cell frequencies enhanced by previous treatment [9]: ~ 30%
CD8+ T cell frequencies [9]: increased

N.N.[Cl][Pt][Cl] [cisplatin]
reduction in parasite burden (amastigotes; ref 30): 75%
reduction in parasite burden (amastigotes; ref 31): 80%
reduction in parasite burden (amastigotes; ref 32): 50%
IL-10 reduction (IgG2a response, IL-10): 50%
enhancement of the IgG2a response (IgG2a response, IL-10; ref 30, 31): 50–55%

Nc1nc(O)c2[nH]cc(CNC(CO)CO)c2n1 [SMIG]
concentrations inhibiting growth of promastigotes in vitro [3]: nanomolar to micromolar
concentrations inhibiting growth of promastigotes in vitro [7]: nanomolar to micromolar

Nc1ncnc2c([C@@H]3N[C@H](CO)[C@@H](O)[C@H]3O)c[nH]c12 [IA]
Ki [1]: 0.08 µM
reduction of liver parasite load (LDU) (L. (L.) infantum chagasi [2]; [14]): 45%
reduction of liver parasite load (LDU) (L. (L.) infantum chagasi [2]; [13]): 89%
anti-NH36 IgG1 in infected untreated controls higher than in treated mice ([10]; day 1): 69%
anti-NH36 IgG1 in infected untreated controls higher than in treated mice ([10]; day 15): 64%
anti-NH36 IgG1 in infected untreated controls higher than in treated mice ([10]; day 30): 57%
damage to macrophage viability (macrophage): no apparent damage
concentrations inhibiting growth of promastigotes in vitro [3]: nanomolar to micromolar
metabolic stability ([12]; mouse, rat, guinea pig and cynomolgus macaque): metabolically stable
clearance from plasma ([12]; ref 37): rapid clearance
mutagenicity or chromosomal aberrations (human lymphocytes): did not induced mutagenicity or chromosomal aberrations
liver parasite load reduction (L. (L.) infantum chagasi [4]): 86%
liver parasite load (L. (L.) infantum chagasi [4]): 2,038 LDU
inhibition of intracellular replication of amastigotes [5]: 95%
survival [6]: 100%
IL-10 levels (splenocytes): 113 pg/mL
concentrations inhibiting growth of promastigotes in vitro [7]: nanomolar to micromolar
body weight ([8]; infected hamsters): increase in body weight
decrease of creatinine ([8]; infected hamsters): 66%
CD19 B cell frequencies enhanced by previous treatment [9]: ~ 30%
CD4+ T cell frequency, higher proportion than previously untreated controls ([9]; day 1): 57%
CD8+ T cell frequencies [9]: increased
CD4+ T cell frequency, higher proportion than previously untreated controls ([9]; day 15): 21%
CD4+ T cell frequency, higher proportion than previously untreated controls ([9]; day 30): 29%

CCCCCCCCCCCCCCCCOP(=O)([O-])OCC[N+](C)(C)C [Miltefosine]
reduction in parasite burden (amastigotes; ref 46): 50%
enhancement of the IgG2a response (IgG2a response, IL-10; ref 46): 75%
cure rates (visceral leishmaniasis; Brazil): 50%
success rates (visceral leishmaniasis; India): 94%

1,3,4-tiadiazolium-2 aminide
IL-10 reduction (IgG2a response, IL-10): 75%

O=c1[nH]cnc2c(CN3C[C@H](CO)[C@@H](O)C3)c[nH]c12 [DIH]
concentrations inhibiting growth of promastigotes in vitro [3]: nanomolar to micromolar
concentrations inhibiting growth of promastigotes in vitro [7]: nanomolar to micromolar

Nc1nc2c(CN3C[C@H](CO)[C@@H](O)C3)c[nH]c2c(=O)[nH]1 [DIG]
concentrations inhibiting growth of promastigotes in vitro [3]: nanomolar to micromolar
concentrations inhibiting growth of promastigotes in vitro [7]: nanomolar to micromolar
